Source: US4552868A, “14-Amino steroid derivatives, a process for the preparation thereof and method of use thereof” (Etablissements Nativelle S.A., priority 1982, dated 1985)

Legend:
[1] = system: isolated guinea pig auricle; assay: Positive inotropic activity: increase in force of contraction on the isolated guinea pig auricle; settings: Cavia porcellus, read-out: Range of contractions in relation to the control values; for activation at 2 µM: 2 × 10^-6 Moles/l; for activation at 6 µM: 6 × 10^-6 Moles/l; for activation at 10 µM: 10^-5 Moles/l; for activation at 1 µM: 10^-6 Moles/l; for activation at 0.2 µM: 2 × 10^-7 Moles/l
From the text: Inotropic activity has been verified on the isolated guinea pig auricle under normal experimental conditions, by recording the range of contractions for various doses administered in relation to control values.
Range of contractions in relation to the control values

membraneous ATPase = assay: Inhibition of membraneous ATPase; type: biochemical; settings: read-out: ED50 (dose causing 50% inhibition of membraneous ATPase)
From the text: The results obtained using the derivatives of the invention described in Examples 2, 6 and 7 and ouabain and digoxin are shown in Table 2 below.
In Table 2, the ED50 value is the dose causing 50% inhibition of membraneous ATPase.

cardiac contractility = assay: Toxicity versus increase in cardiac contractility in the anesthetized dog; type: in vivo
From the text: Similarly, the toxicity of the derivatives of the invention is reversible, that is, stopping their administration is sufficient to make problems observed using an electrocardiogram disappear.

Structure (SMILES)	activation at 2 µM [1] [%]	activation at 6 µM [1] [%]	activation at 10 µM [1] [%]	activation at 1 µM [1] [%]	IC50 (membraneous ATPase) [pM]	increase in cardiac contractility without any signs of toxicity (cardiac contractility) [%]	signs of toxicity (cardiac contractility; at 150% increase in cardiac contractility)	activation at 0.2 µM [1] [%]	increase in cardiac contractility at which toxic signs appear (cardiac contractility; same experimental conditions)
C[C@H](O)[C@H]1CC[C@]2(N)[C@@H]3CC[C@@H]4C[C@@H](O[C@@H]5O[C@@H](C)[C@H](O)[C@@H](O)[C@H]5O)CC[C@]4(C)[C@H]3CC[C@]12C [Example 6, 3-O-(α-L-rhamnopyranosyl) 14β-amino 5β-pregnane 3β,20α-diol]	63	143	148	43	180	150	without any signs of toxicity		
C[C@@H]1O[C@@H](O[C@H]2C[C@@H](O)[C@]3(CO)[C@H]4[C@H](O)C[C@]5(C)[C@@H](C6=CC(=O)OC6)CC[C@]5(O)[C@@H]4CC[C@]3(O)C2)[C@H](O)[C@H](O)[C@H]1O [ouabain, reference compound]					3600				
C[C@@H]1O[C@@H](O[C@H]2CC[C@@]3(C)[C@H](CC[C@@H]4[C@@H]3CC[C@]3(C)[C@@H](CO)CC[C@]43N)C2)[C@H](O)[C@H](O)[C@H]1O [Example 2, 3-O-(α-L-rhamnopyranosyl) 14β-amino 21-nor 5β-pregnane 3β,20-diol]					130				
C[C@@H]1O[C@@H](O[C@H]2CC[C@@]3(C)[C@H](CC[C@@H]4[C@@H]3CC[C@]3(C)[C@@H]([C@@H](C)O)CC[C@]43N)C2)[C@H](O)[C@H](O)[C@H]1O [Example 7, 3-O-(α-L-rhamnopyranosyl) 14β-amino 5β-pregnane 3β,20β-diol]	178	233	206	97	70			50	
C[C@H]1O[C@@H](O[C@H]2[C@@H](O)C[C@H](O[C@H]3[C@@H](O)C[C@H](O[C@H]4CC[C@@]5(C)[C@H](CC[C@@H]6[C@@H]5C[C@@H](O)[C@]5(C)[C@@H](C7=CC(=O)OC7)CC[C@]65O)C4)O[C@@H]3C)O[C@@H]2C)C[C@H](O)[C@@H]1O [digoxin, reference compound]	114	128	128	100	5300			38	approximately 50%
